Measurements taken from patent US8957022B2, “Multimeric tie 2 agonists and uses thereof in stimulating angiogenesis” (Sunnybrook Health Sciences Centre, priority 2006, dated 2015).
One block for each molecule: values may come before it. Where no end group is shown, it is not given here. Side-chain parts run from the residue outwards. The star is where a group is joined. Biotin = O=C1N[C@H]2[C@H](CS[C@H]2CCCCC(=O)*)N1; PEO = not defined here

How the values were obtained:
CD1 mice = assay: Matrigel plug angiogenesis assay; assay type: in vivo, mouse
Method: To further examine the in vivo angiogenic potential of Vasculotide, a Matrigel assay was performed. More specifically, growth factor reduced Matrigel (BD Biosciences) was impregnated with either clustered Vasculotide or one of several different control factors. These Matrigel samples were injected subcutaneously into the flank region of 3 month old CD1 mice. 14 days post implantation and immediately prior to sacrifice, FITC lectin (100 μg) was injected IV and allowed to circulate for 10 minutes, to facilitate vessel identification and quantification. Plugs were surgically resected and fixed in 4% paraformaldehyde (PFA) for 16 h. Images of vascular topology were taken using a Zeiss dissecting microscope at 4× magnification. Upon fixing, all plugs were whole mount stained with anti-Sma1-Cy3. Plugs were analyzed on a Zeiss Axiovert 100 M confocal microscope (Carl Zeiss) for three dimensional image reconstruction and photos were processed using LSM Image Browser and Adobe Photoshop 7.0. Morphometric quantification of vessel characteristics was performed by skeletonizing confocal image projections with Image Processing Tool Kit 5.0 (IPTK 5.0). Student's t test was used to test the statistical significance with a 95% confidence interval. All experiments were performed with three replicates each, with at least 5 random image stacks.
To more fully address and assign quantitative vessel parameters to the different treatment groups, the plugs were fixed and interrogated with laser confocal microscopy analysis combined with post processing image analysis (Image Processing Tool Kit 5.0, Reindeer Graphics, N.C.). Vessel parameters, including length, number and branch points (nodes) were quantified on at least six representative fields. Statistical analysis was performed by way of unpaired Student's t test. Bar graphs of the number of vessels, vessel length and number of nodes, for each treatment group, are shown in FIGS. 3A, 3B and 3C, respectively. It is noted that poor perfusion of FITC-lecithin into mice harboring 20 nM clustered Vasculotide plus VEGF plugs prevented statistical analysis, therefore bars are the mean of two separate fields. All other bars shown represent mean+/−SD.
Ang 1 has been reported to potentiate the recruitment of myogenic support cells (Suri, C. et al. (1996) Cell 87:1171-1180) and inhibit VEGF induced vascular permeability through mechanisms that are not well understood (Thurston, G. et al. (2000) Nat. Med. 6:460-463). To determine if Vasculotide, like Ang 1, was capable of initiating pericyte recruitment, whole mount immunofluorescence was performed against smooth muscle actin 1 (Sma1). […] Sma 1 staining was tightly associated with the exterior of the vessels and was enriched on larger vessels.

HUVEC [1] = assay: Serum withdrawal-induced cell death, Cell Death ELISA; assay type: cell-based, human; details: F12 plus 0.1% FBS, 16 hours; clustered Vasculotide at 500 pM (p=0.002) vs non-treated cells
Method: Based on the fact that clustered Vasculotide strongly activates the anti apoptotic protein AKT (see Example 3), the ability of Vasculotide to protect ECs from serum withdrawal-induced death was examined. To do so, HUVEC were maintained in F12 media plus 0.1% FBS for 16 hours in the presence of various concentrations of unclustered or clustered Vasculotide, followed by analysis of cell apoptosis via cell death ELISA. Analysis of apoptosis was performed using Cell Death ELISA Plus (Roche) according to manufacturers' specifications. The results are shown in FIG. 2A, in which values were normalized to basal levels of cell death for HUVECs maintained in full 10% FBS, growth factor supplemented F12 media. The results shown represent the mean of three replicates plus or minus 1 SD. Student's T-test was used for statistical analysis with P value indicated.

Tie 2 = Tie 2 (Homo sapiens, UniProt Q02763); assay: Tie 2 activation (pY992 Tie 2 immunoblot) in HUVEC; assay type: cell-based; design: downstream signalling pathways in human umbilical vein endothelial cells (HUVEC) (Cambrex, N.J.); host or cells: HUVEC, passage 3-9; details: avidin alone and unclustered Vasculotide
Method: Having established that Vasculotide was able to bind Tie 2 (see Example 2), the ability of Vasculotide, when clustered with avidin in a 4:1 ratio (Vasculotide:avidin), to activate the Tie 2 receptor was tested by examining several well established downstream signalling pathways in human umbilical vein endothelial cells (HUVEC) (Cambrex, N.J.). Such signalling pathways are described in, for example, Kim, I. et al. (2000) Circ. Res. 9:952-959; Fujikawa, K. et al. (1999) Exp. Cell. Res. 2:663-672; Babaei, S. et al. (2003) Am. J. Pathol. 6:1927-1936.
HUVEC were grown on 6-well or 10 cm plates (Nunc) coated with gelatin (Sigma). HUVEC were cultured in F12 growth medium containing 10% fetal bovine serum (FBS), 0.1 mg/ml heparin sulphate, 1× penicillin, 1× streptomycin, 1× glutamine, VEGF 10 ng/ml, EGF 10 ng/ml, bFGF 5 ng/ml. All HUVEC were used between passage 3-9.
(§1) HUVEC were stimulated with one of either Ang 1 (R&D Systems), Vasculotide, avidin or clustered Vasculotide (preclustered with a 4:1 molar ratio of peptide:avidin in PBS for 2 hours at 4° C.) at various doses. Stimulations with Vasculotide were performed in full serum containing growth media for 15 minutes unless otherwise indicated. Cell lysate preparations and immunoblot analysis were performed by standard methods. Antibodies used for immunoblotting (in this and/or subsequent Examples) were monoclonal anti Tie 2 (Pharminogen), polyclonal anti pY992 Tie 2, (Cell Signaling Technology), polyclonal anti MAPK (Cell Signaling Technology), monoclonal anti phospho MAPK (Cell Signaling Technology), polyclonal anti AKT (Cell Signaling Technology), polyclonal anti pS473 AKT (Cell Signaling Technology), monoclonal anti pS1177 eNOS (BD Biosciences), polyclonal anti pY397 FAK (Biosource), polyclonal anti FAK (Santa Cruz), polyclonal anti smooth muscle actin-Cy3 direct conjugate (Dako), polyclonal anti PECAM (Pharminogen) and polyclonal anti smooth muscle actin (Sigma).
To examine Tie 2 activation kinetics, HUVEC were stimulated with native Ang 1 or clustered Vasculotide for various times. Stimulation was performed in 10% FBS. […] Overall, activation of the receptor by either Ang 1 or clustered Vasculotide followed a very similar time course with phosphorylation returning to almost basal levels sometime after 2 hours.

[2] = tested on: B6.Cg-m(+/+)Lepr(db)/J (db/db) mice; assay: Excisional wound healing in diabetic mice, topical application; assay type: in vivo, mouse; details: bFGF 10 μg/ml
Method: Pathogen free, nine week old B6.Cg-m(+/+)Lepr(db)/J (db/db) mice were purchased from Jackson Laboratories. Circular, full excisional, 6 mm diameter wounds were made, according to animal committee approval guidelines, equal distant apart on the dorsal side of the mice. Various factors were suspended in sterile Intrasite Topical Gel (Smith and Nephew) at noted concentrations. Treatments were as follows: Vehicle n=8, bFGF (10 μg/ml) n=8, clustered Vasculotide (20 nM) n=4, clustered Vasculotide (5 nM) n=4. Preparations were applied at day 0 (time of wounding), day 2, 4 and 6. Standardized images were taken on days 0, 2, 4, 6 and 7 using a Canon EOS digital Rebel camera. Image J (NIH) was used to manually outline wound perimeter from which total pixel counts (wound area) were determined. Mice were sacrificed on day 7 and full wound beds including margin were excised and fixed in 4% PFA. Wounds were cut in half at the widest point and each half was prepared for either paraffin or frozen sections. Wax sections were processed according to standard protocols for H&E and Masson's Trichrome stain. Images were captured using a Leica DMLS compound light microscope and Pixel Link camera at 5× and 20×. Student's t test was used to test the statistical significance.
For histological scoring, sections were fixed in 4% paraformaldehyde, embedded in paraffin and sectioned and stained with H & E and Masson's trichrome. Sections were evaluated by a pathologist for re-epithelialization, granulation tissue formation, and inflammation, with criteria used for scoring skin as follows:
• 0—none • 1—minimal (0-20% regrowth from wound margins) • 2—mild (25% to 50% regrowth) • 3—moderate (>50% regrowth, up to 100% but not >2 cells thick along length) • 4—complete regrowth (epithelium>1 cell thick along length, keratinized) Granulation Tissue (GT) and Neovascularization: • 0—none • 1—minimal (1-3 small, isolated islands of GT at margins of defect) • 2—mild (multifocal, patchy islands of GT underlying tissue defect, <10 new blood vessels) • 3—moderate (locally extensive bands of GT underlying length of defect) • 4—marked (dense bands of GT at margins and underlying length of defect with collagen fibrils and numerous blood vessels) Inflammation (within Defect): • 0—none • 1—minimal (a few scattered neutrophils at margins of defect) • 2—mild (multifocal aggregates of up to 5 neutrophils underlying defect) • 3—moderate (multifocal aggregates of up to 10 neutrophils and occasional macrophages, minimal to mild edema) • 4—marked (locally extensive, dense neutrophilic infiltrates with lesser numbers of macrophages, mild-moderate edema)

HUVEC [3] = assay: Modified Boyden chamber migration assay; assay type: cell-based, human; details: as in Example 4
Method: To test if Vasculotide, like Ang 1, was capable of promoting these processes, the effect of Vasculotide on EC migration was tested using a modified Boyden chamber assay. HUVEC were seeded at a density of 8.4×10^4 cells in 500 μl of F12 growth media plus 0.1% FBS in the upper chamber of an 8 μm pore size modified Boyden chamber (Falcon). 500 μl of F12 media plus 0.1% FBS plus various growth factors (Ang 1 (R& D Systems), unclustered or clustered Vasculotide, VEGF (R&D Systems) or clustered Vasculotide in combination with VEGF) or controls were placed in the bottom chamber. Cells were allowed to migrate for 4 hours in a 37° C., 5% CO2 incubator. Nonmigrating cells were scraped off, and filters were fixed in 100% methanol for 5 minutes, stained with Harris' Hematoxylin (BDH) for 10 minutes and washed twice with tap water for 3 minutes each. Filters were then mounted using Aquapolymount mounting medium. Cells that had migrated more than 50% of the way through the pore were scored as positive for migration.
Student's t test was used to test the statistical significance with a 95% confidence interval. Stimulations were performed in triplicate and migrating cells in 6 microscopic fields per replicate were counted.

MMP2 = assay: Gelatin zymography of HUVEC conditioned media; assay type: cell-based, human; details: as in Example 4
Method: In vivo, ECs can not migrate until they secrete enzymes necessary to break down components of the extra cellular matrix. Gelatin zymography was employed to determine if clustered Vasculotide promoted secretion of MMP2. To perform the zymography, HUVEC were cultured in F12 media plus 0.1% FBS and stimulated for 16 h with VEGF, unclustered Vasculotide or clustered Vasculotide at various concentrations. Conditioned media was centrifuged to remove cellular debris and prepared for gel electrophoresis using non-reducing conditions. Gels were washed twice for 30 minutes in 2.5% Triton X-100 to remove sodium dodecyl sulfate and were then incubated in substrate buffer (50 mmol/L Tris-HCl, pH 8.8, 5 mmol/L CaCl2) for 16 hours at 37° C. Gels were then stained with 0.5% Coomassie blue in 30% methanol/10% acetic acid for 2 hours at room temperature and destained in 50% methanol/10% acetic acid. The presence of metalloproteinases was indicated by unstained proteolytic zones in the gel.

[4] = tested on: focal adhesion kinase (FAK); assay: FAK activation in HUVEC (pY397 FAK immunoblot); assay type: cell-based, human; details: time course
Method: as §1
To examine Tie 2 activation kinetics, HUVEC were stimulated with native Ang 1 or clustered Vasculotide for various times. Stimulation was performed in 10% FBS. […]

Sequence of Tie 2 (Q02763 23-1124): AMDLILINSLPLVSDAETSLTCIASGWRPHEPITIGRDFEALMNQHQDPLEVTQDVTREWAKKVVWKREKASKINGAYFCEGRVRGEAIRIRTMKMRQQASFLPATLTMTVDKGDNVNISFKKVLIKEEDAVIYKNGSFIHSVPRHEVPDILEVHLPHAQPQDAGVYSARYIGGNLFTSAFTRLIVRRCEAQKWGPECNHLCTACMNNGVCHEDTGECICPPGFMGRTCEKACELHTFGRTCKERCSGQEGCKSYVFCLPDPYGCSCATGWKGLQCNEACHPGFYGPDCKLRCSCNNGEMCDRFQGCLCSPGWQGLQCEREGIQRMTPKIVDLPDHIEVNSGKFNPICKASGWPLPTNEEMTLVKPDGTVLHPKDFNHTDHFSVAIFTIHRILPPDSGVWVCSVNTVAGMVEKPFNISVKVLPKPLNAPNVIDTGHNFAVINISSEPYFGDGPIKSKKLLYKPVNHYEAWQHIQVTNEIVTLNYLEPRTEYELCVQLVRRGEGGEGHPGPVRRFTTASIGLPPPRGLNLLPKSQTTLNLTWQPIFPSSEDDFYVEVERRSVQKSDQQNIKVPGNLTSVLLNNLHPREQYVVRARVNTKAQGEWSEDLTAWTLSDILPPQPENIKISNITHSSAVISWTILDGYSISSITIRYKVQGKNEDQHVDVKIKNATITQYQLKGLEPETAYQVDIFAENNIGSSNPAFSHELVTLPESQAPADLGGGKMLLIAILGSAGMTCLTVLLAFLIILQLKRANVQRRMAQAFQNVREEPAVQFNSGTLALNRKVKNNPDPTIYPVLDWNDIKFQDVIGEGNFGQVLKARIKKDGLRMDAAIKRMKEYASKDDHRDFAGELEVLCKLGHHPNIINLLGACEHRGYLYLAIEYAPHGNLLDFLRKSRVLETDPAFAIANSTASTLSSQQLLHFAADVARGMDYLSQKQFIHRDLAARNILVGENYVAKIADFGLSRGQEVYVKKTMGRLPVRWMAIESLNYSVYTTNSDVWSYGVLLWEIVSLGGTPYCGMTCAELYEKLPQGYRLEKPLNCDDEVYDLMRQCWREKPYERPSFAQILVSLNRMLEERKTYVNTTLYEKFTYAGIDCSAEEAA

Molecule: VEGF [reference compound]
- Nature of vessels (arborization, tortuosity) (CD1 mice; 14 days post implantation): highly tortuous
- Vessel growth in plugs (confocal analysis) (CD1 mice; 14 days post implantation, FITC lectin): robust induction of angiogenesis
- Angiogenic response in the membranous capsule surrounding the plugs (CD1 mice; 14 days post implantation, subcutaneous): distinct and robust angiogenic response
- Smooth muscle actin 1 (Sma1) staining, pericyte recruitment (CD1 mice; whole mount immunofluorescence): relative absence of Sma1 positive staining cells

Molecule: avidin: tetramer agent with four binding sites for biotin, tested alone as control [reference compound]
- Apoptosis / survival after serum withdrawal (HUVEC [1]): no effect on survival
- Tie 2 phosphorylation without preclustering (Tie 2): only when preclustered with avidin was Vasculotide able to stimulate Tie 2 phosphorylation

Molecule: bFGF: growth factor used as comparator at 10 μg/ml in the wound gel [reference compound]
- Wound closure by day 7 [2]: statistically indistinguishable from clustered Vasculotide at 20 nM or 5 nM
- Histological differences between vehicle and bFGF ([2]; p=0.0486): existed only at the level of inflammation

Molecule: tetrameric GA3-containing compound: GA3 peptide (SEQ ID NO: 4) conjugated to PEO-maleimide-biotin, clustered with avidin in a 4:1 ratio (C([maleimide-PEO-Biotin])WTIIQRREDGSVDFQRTWKEYK; reading uncertain; also: avidin tetramer, 4 peptides per avidin, printed as Cys-Trp-Thr-Ile-Ile-Gln-Arg-Arg-Glu-Asp-Gly-Ser-Val-Asp-Phe-Gln-Arg-Thr-Trp-Lys-Glu-Tyr-Lys)
- Endothelial cell migration (GA3 tetramer) (HUVEC [3]): effective in promoting endothelial cell migration
- MMP2 release (GA3 tetramer) (MMP2): effective in promoting MMP2 release

- Activation of FAK [4]: time dependently activated FAK
B1: Ang 1: angiopoietin 1, protein growth factor ligand for Tie 2 (R&D Systems) (protein, UniProt Q15389 16-498, looked up)
Angiopoietin-1: HIGCSNQRRSPENSGRRYNRIQHGQCAYTFILPEHDGNCRESTTDQYNTNALQRDAPHVEPDFSSQKLQHLEHVMENYTQWLQKLENYIVENMKSEMAQIQQNAVQNHTATMLEIGTSLLSQTAEQTRKLTDVETQVLNQTSRLEIQLLENSLSTYKLEKQLLQQTNEILKIHEKNSLLEHKILEMEGKHKEELDTLKEEKENLQGLVTRQTYIIQELEKQLNRATTNNSVLQKQQLELMDTVHNLVNLCTKEGVLLKGGKREEEKPFRDCADVYQAGFNKSGIYTIYINNMPEPKKVFCNMDVNGGGWTVIQHREDGSLDFQRGWKEYKMGFGNPSGEYWLGNEFIFAITSQRQYMLRIELMDWEGNRAYSQYDRFHIGNEKQNYRLYLKGHTGTAGKQSSLILHGADFSTKDADNDNCMCKCALMLTGGWWFDACGPSNLNGMFYTAGQNHGKLNGIKWHYFKGPSYSLRSTTMMIRPLDF
